Tests used:
[1] = biological target: T1, ATP-binding cassette sub-family C member 5 (Homo sapiens, UniProt O15440); experiment: TP_TRANSPORTER: efflux in MRP5-expressing MDCKII cells; assay type: functional, cell-based; conditions: dog, mdck-ii
[2] = biological target: T1, ATP-binding cassette sub-family C member 5; experiment: TP_TRANSPORTER: inhibition of PMEA efflux (PMEA: 1 uM) in MRP5-expressing MDCKII cells; assay type: functional, cell-based, MDCK-II

T1 sequence (O15440 whole entry): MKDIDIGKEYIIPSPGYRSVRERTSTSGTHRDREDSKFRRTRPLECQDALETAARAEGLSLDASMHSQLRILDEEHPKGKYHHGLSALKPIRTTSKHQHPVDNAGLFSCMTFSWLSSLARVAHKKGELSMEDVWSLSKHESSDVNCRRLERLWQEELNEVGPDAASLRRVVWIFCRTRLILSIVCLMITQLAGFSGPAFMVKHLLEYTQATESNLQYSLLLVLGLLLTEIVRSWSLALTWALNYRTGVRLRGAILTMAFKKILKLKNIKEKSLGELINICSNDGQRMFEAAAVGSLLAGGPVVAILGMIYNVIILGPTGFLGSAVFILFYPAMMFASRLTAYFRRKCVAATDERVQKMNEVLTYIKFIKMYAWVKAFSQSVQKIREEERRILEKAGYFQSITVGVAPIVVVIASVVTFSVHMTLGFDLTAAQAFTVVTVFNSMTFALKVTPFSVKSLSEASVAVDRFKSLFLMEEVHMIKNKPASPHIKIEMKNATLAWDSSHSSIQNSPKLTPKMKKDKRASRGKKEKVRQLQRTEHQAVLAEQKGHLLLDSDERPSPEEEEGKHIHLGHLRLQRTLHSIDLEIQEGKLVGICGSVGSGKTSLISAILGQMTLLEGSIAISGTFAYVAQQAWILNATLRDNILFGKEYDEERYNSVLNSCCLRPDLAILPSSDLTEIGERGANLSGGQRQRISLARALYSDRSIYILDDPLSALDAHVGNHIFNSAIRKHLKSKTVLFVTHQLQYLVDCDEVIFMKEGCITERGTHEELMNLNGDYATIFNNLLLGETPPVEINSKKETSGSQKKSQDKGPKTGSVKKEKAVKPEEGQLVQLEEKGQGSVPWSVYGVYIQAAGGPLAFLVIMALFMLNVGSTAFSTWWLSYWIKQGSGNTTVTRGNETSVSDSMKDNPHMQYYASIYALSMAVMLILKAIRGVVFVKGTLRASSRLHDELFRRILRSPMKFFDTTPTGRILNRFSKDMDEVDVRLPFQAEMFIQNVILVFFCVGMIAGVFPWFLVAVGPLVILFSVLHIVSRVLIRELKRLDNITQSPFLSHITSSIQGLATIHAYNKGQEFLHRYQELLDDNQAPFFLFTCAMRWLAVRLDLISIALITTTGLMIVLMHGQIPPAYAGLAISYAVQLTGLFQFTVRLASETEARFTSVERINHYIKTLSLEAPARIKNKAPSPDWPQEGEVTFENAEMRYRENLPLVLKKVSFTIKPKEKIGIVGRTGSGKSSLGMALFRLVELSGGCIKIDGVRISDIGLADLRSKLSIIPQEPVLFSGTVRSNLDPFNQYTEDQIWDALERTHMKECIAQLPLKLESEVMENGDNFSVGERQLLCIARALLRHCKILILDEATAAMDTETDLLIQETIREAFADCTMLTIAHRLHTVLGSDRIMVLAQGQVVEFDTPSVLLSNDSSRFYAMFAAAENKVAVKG

IC50 [2] [µM] | SMILES | Activity [1]
– | Nc1ncnc2c1ncn2CCOCP(=O)(O)O [ADEFOVIR] | substrate [+]
– | Sc1ncnc2nc[nH]c12 [MERCAPTOPURINE ANHYDROUS] | substrate [+]
< 100 | O=C1C(CC[S+]([O-])c2ccccc2)C(=O)N(c2ccccc2)N1c1ccccc1 (stereo not drawn) [SULFINPYRAZONE] | –
